Assay results as given in PMC10451034, “Highly Efficient Photosensitizers with Molecular Vibrational Torsion for Cancer Photodynamic Therapy” (ACS Central Science, 2023).

Test: In vivo biosafety (body weight, H&E staining of major organs)
Set-up: species or system BALB/c mice
Experimental: The efficacy and safety of each therapeutic group were also evaluated by performing a hematoxylin and eosin (H&E) staining assay of major organs and tumor tissue (Figures 10g and S23). […]
of major organs, the mice L) was intravenously injected with QTCy7-Ac (200 μM, 100 μL) 2 hours in advance were killed and the main organs and tumors were removed for […]
Tumor suppression experiments of 4T1-subcutaneous tumor model
To confirm the in vivo PDT efficacy of QTCy7-Ac, all the BALB/c mice were divided into 6 groups: 1) saline injection; 2) saline injection with 660 nm irradiation (100 mW/cm2, 15 min); 3) QTCy7-Ac (200 μM, 100 μL) intratumoral injection; 4) QTCy7-Ac (200 μM, 100 μL) intratumoral injection with 660 nm irradiation (100 mW/cm2, 15 min); 5) QTCy7-Ac (200 μM, 100 μL) intravenous injection; 6) QTCy7-Ac (200 μM, 100 μL) intravenous injection with 660 nm irradiation (100 mW/cm2, 15 min); When the volume of subcutaneous tumors reached about 100 mm 3, mice were injected with PBS or QTCy7-Ac, respectively. […] In the following half month, the tumor volume of all the mice was measured every two days by a vernier caliper. The volume of tumors was calculated by the following formula: […]
The in vivo biocompatibility was evaluated by using measurement mice body weight and H&E slice histological analysis. […]
Data were expressed as mean ± standard deviation. […]

CCOC(=O)C1=C/C(=C\C=C2/Sc3ccccc3N2CC)C(=O)C(/C=C/c2sc3ccccc3[n+]2CC)=C1 [QTCy7-Ac]
H&E staining of major organs (heart, liver, spleen, lung, kidney) (after 16 days of treatment): not observed
body weight changes (during the treatment): no abnormal body weight changes
